These are literature values, as cited in US20240398793A1, “Methods of Treating Lymphedema” (Celltaxis, LLC, priority 2021, published 2024).

“Also recorded” adds a separate entry of the source. Where only a bound is given, the exact number is not on record here.

Data set [1] addresses T1, LTA4H aminopeptidase (Homo sapiens (Human), UniProt P09960). The settings on record: read-out: Aminopeptidase IC50 ± SEM; cited from earlier work.
The target of data set [2] is LTA4H epoxide hydrolase (Homo sapiens (Human), UniProt P09960). As to conditions: read-out: EH (Epoxide Hydrolase) IC50 ± SEM; cited from earlier work.
LTA4H epoxide hydrolase, sequence (P09960 whole entry): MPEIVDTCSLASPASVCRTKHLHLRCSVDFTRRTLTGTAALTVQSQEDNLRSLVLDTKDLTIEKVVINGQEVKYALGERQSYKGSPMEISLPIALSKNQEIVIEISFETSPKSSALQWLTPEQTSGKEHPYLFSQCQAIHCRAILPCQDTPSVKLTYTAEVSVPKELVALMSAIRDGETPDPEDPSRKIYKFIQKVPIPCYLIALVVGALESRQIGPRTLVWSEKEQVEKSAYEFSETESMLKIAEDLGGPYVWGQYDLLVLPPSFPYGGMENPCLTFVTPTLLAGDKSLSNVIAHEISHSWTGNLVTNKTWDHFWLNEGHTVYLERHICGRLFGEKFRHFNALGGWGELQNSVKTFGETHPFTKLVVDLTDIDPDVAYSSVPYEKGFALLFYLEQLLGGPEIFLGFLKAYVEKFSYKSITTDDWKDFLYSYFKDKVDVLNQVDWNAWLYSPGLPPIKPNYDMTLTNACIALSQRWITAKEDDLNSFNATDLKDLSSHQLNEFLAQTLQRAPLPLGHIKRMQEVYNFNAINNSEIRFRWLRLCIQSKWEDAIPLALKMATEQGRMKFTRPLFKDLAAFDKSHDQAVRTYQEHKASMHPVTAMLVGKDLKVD
The test system of data set [3] is experimental acquired lymphedema. The settings on record: cited from earlier work.
Data set [4] concerns the target T1, LTA4H aminopeptidase. The settings on record: Bhatt et al. (2017); Inoi et al. (1995); cited from earlier work.
Data set [5] has as its system lymphedema of the lower limb. As to conditions: Phase 2, lymphedema of the lower limb; cited from earlier work.
For data set [6], the system named is aminopeptidases. The settings on record: Bhatt et al. (2017); Inoi et al. (1995); cited from earlier work.
The test system of data set [7] is human lymphedema. As to conditions: adult lymphedema subjects, open-label and placebo-controlled pilot; cited from earlier work.

T1 sequence (P09960 whole entry): as above

Consider `CC(=O)Oc1ccc(/C=C/c2cc(OC(C)=O)cc(OC(C)=O)c2)cc1` [Compound 4], for which the IC50 (in general, the point on the concentration scale where inhibition reaches its midpoint) in data set [1] is above 100 µM.

As to `COc1cc(O)cc(CCc2ccc(O)cc2)c1` [Compound 6], the IC50 in data set [1] was above 100 µM.

With `CCOc1cc(O)cc(CCc2ccc(O)cc2)c1` [Compound 7], the IC50 in data set [1] was above 100 µM.

For `COc1cc(O)cc(CCc2cccc(O)c2)c1` [Compound 8], the IC50 in data set [1] was above 100 µM.

Regarding `COc1cc(O)cc(CCc2ccccc2O)c1` [Compound 9], the IC50 in data set [1] is above 100 µM.

Take `O=C(Cc1ccc(O)cc1)c1ccc(O)cc1O` [Compound 10]: the half-maximal inhibitory concentration (IC50) in data set [1] was above 100 µM.

`O=c1c(-c2ccc(O)cc2)coc2cc(O)ccc12` [Compound 11]: the half-maximal inhibitory concentration (IC50) in data set [1] is above 100 µM.

In the case of `O=c1c(-c2ccc(O)cc2)coc2c(O)cccc12` [Compound 12], the values for the IC50 in data set [1] and in data set [2] were 62.7 ± 13.3 µM and 7.3 ± 0.8 µM, respectively.

On to `O=c1c(-c2ccccc2)coc2cc(O)ccc12` [Compound 13], for which the half-maximal inhibitory concentration (IC50) in data set [1] is above 100 µM.

As to `O=c1c(-c2ccc(O)cc2)coc2c3c(ccc12)OCO3` [Compound 14], the IC50 is 20.6 ± 3.3 µM in data set [1] and 20.6 ± 24 µM in data set [2].

On to `Cc1ccc2c(=O)c(-c3ccc(O)cc3)coc2c1O` [Compound 15], for which the IC50 in data set [1] was 69.2 ± 10.9 µM.

Turning to `CC(C)C[C@H](NC(=O)[C@@H](O)[C@H](N)Cc1ccccc1)C(=O)O` [Ubenimex], the “edema, lymphatic function, lymphatic architecture” value in data set [3] (murine model of lymphedema) was “reversed edema, improved lymphatic function, and restored lymphatic architecture”. Besides, in data set [4], the LTA4H selectivity result is given as “non-selective LTA4H inhibitor”. Moreover, the “improvement in skin thickness, limb volume and bioimpedance over placebo” value in data set [5] is listed as “did not identify an improvement”. Further, the aminopeptidase inhibition spectrum entry in data set [6] was “broad spectrum aminopeptidase inhibitor”.

In the case of `CC(C(=O)O)c1cccc(C(=O)c2ccccc2)c1` (stereo not shown) [ketoprofen], the “skin thickness and cutaneous histopathology” value in data set [7] was “salutary effects; also recorded: improve skin thickness”. Moreover, in data set [3] (mice, systemic administration), the lymphedema disease burden result is “documented reversal of disease burden; also recorded: disease burden was reversed”.
